From patent US10881110B2, “Herbicidal compositions comprising isoxazolo[5,4-b]pyridines” (BASF SE, priority 2014, dated 2021)

Legend:
Assay in all cases: greenhouse post-emergence herbicidal test
ABUTH = assay type: in vivo, Abutilon theophrast; details: Abutilon theophrasti, post-emergence, 480 h, read-out: herbicidal activity against ABUTH found
Procedure, shortened: (§1)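 Visual rating at 20 days after treatment used a 0–100 scale, where 100 meant no emergence or complete destruction of above-ground parts. Seedlings of 1–15 cm, grown at species-dependent 10-25° C or 20-35° C, received water-based spray liquor containing the formulated components.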

ALOMY = assay type: in vivo, Alopecurus myosuroides; design: key to herbicidal activity against ALOMY found: rating on a scale from 0 to 100; details: for herbicidal activity against ALOMY found: B.95 1 g/ha a.i.
Procedure, shortened: as §1

APESV = assay type: in vivo, Apera spica-venti; design: key to herbicidal activity against APESV found: rating on a scale from 0 to 100; details: for herbicidal activity against APESV found: B.95 1 g/ha a.i.
Procedure, shortened: as §1

KCHSC = assay type: in vivo, Kochia scoparia; details: Bassia scoparia, post-emergence, 480 h, read-out: herbicidal activity against KCHSC found
Description: (§2) The culture containers used were plastic pots containing medium loamy sand with approximately 4.6% of humus and 69.9% sand as substrate. The seeds of the test plants were sown separately for each species.
(§3) For the post-emergence treatment, the test plants were grown to a plant height of from 1 to 15 cm, depending on the plant habit, and only then treated with the active compounds which had been suspended or emulsified in water. To this end, the test plants were either sown directly, and grown in the same containers, or they were first grown separately as seedlings and transplanted into the test containers a few days prior to treatment.
(§4) Depending on the species, the plants were kept at 10-25° C. and 20-35° C., respectively.
(§5) The test period extended over 1 to 3 weeks. During this time, the plants were tended and their response to the individual treatments was evaluated 20 days after treatment except mentioned otherwise.
(§6) Evaluation was carried out using a scale from 0 to 100. 100 means no emergence of the plants, or complete destruction of at least the above-ground parts, and 0 means no damage or normal course of growth.
(§7) The respective stated components A and B, and, if appropriate, C, were formulated as a 10% by weight strength emulsion concentrate and, with addition of the amount of solvent system, introduced into the spray liquor used for applying the active compound. In the examples, the solvent used was water.
(§8) In the examples below, using the method of S. R. Colby (1967) “Calculating synergistic and antagonistic responses of herbicide combinations”, Weeds 15, p. 22 ff., the value E, which is expected if the activity of the individual active compounds is only additive, was calculated. E=X+Y−(X·Y/100)

MATCH = assay type: in vivo, Matricaria recutita; design: key to herbicidal activity against MATCH found: rating on a scale from 0 to 100
Procedure, shortened: as §1

POLCO = assay type: in vivo, Polygonum convolvulus; design: key to herbicidal activity against POLCO found: rating on a scale from 0 to 100
Procedure, shortened: (§9)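 Post-emergence greenhouse test: plants in loamy sand, sprayed at 1–15 cm height with aqueous spray liquor from 10% emulsion concentrates, kept at 10-25 °C or 20-35 °C by species. Damage scored 0–100 (100 = complete destruction), usually 20 days after treatment. Expected additive effect E from Colby: E=X+Y−(X·Y/100).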

STEME = assay type: in vivo, Stellaria media; design: key: scale 0 to 100
Description: as §2, §3, §4, §5, §6, §7, §8

VIOAR = assay type: in vivo, Viola arvensis; details: Viola arvensis, post-emergence, read-out: herbicidal activity against VIOAR found
Procedure, shortened: as §9

ECHCG = assay type: in vivo, Echinochloa crus-galli; design: key to herbicidal activity against ECHCG found / herbicidal activity against ECHCH found: scale 0 to 100; details: post emergence
Description: as §2, §3, §4, §5, §6, §7, §8

GERDI = assay type: in vivo, Geranium dissectum; design: key to herbicidal activity against GERDI found: rating on a scale from 0 to 100; details: post emergence
Procedure, shortened: as §1

IPOHE = assay type: in vivo, Ipomoea hederacea; design: key to herbicidal activity against IPOHE found: rating on a scale from 0 to 100; details: post emergence
Description: as §2, §3, §4, §5, §6, §7, §8

PAPRH = assay type: in vivo, Papaver rhoeas; design: key: rating on a scale from 0 to 100
Description: as §2, §3, §4, §5, §6, §7, §8

ERICA = assay type: in vivo, Conyza canadensis; design: key to herbicidal activity against ERICA found: rating on a scale from 0 to 100; details: post emergence
Procedure, shortened: as §1

GALAP = assay type: in vivo, Galium aparine; design: key to herbicidal activity against GALAP found: rating on a scale from 0 to 100; details: post emergence
Procedure, shortened: as §9

[1] = Matricaria chamomilla, post-emergence, 480 h, read-out: herbicidal activity against MATCH found
[2] = application rate a.i.: I.1 31.25 g/ha, B.40 (imazethapyr) 7.5 g/ha, alone or as mixture (composition 1.40)
[3] = application rate a.i.: I.1 62.5 g/ha, B.40 (imazethapyr) 7.5 g/ha, alone or as mixture (composition 1.40)
[4] = single active, 50 g/ha a.i., post emergence
[5] = I.1 15.62 g/ha, B.95 1 g/ha a.i.
[6] = I.1 62.5 g/ha, B.95 2 g/ha a.i.
[7] = I.1 31.25 g/ha, B.95 1 g/ha a.i.
[8] = I.1 31.25 g/ha, B.95 2 g/ha a.i.
[9] = I.1 62.5 g/ha, B.95 1 g/ha a.i.
[10] = a.i. g/ha: I.1 62.5, B.191 225, 20 days after treatment

SMILES: C/C(=N\NC(=O)Nc1cc(F)cc(F)c1)c1ncccc1C(=O)O [B.174, diflufenzopyr]
- pest or weed control at 20 g/ha (ABUTH): 85%
- pest or weed control at 20 g/ha (ALOMY; Alopecurus myosuroides, post-emergence, 480 h, read-out: herbicidal activity against ALOMY found): 0%
- pest or weed control at 20 g/ha (APESV; Apera spica-venti, post-emergence, 480 h, read-out: herbicidal activity against APESV found): 0%
- pest or weed control at 20 g/ha (KCHSC): 65%
- pest or weed control at 20 g/ha (MATCH; [1]): 70%
- pest or weed control at 40 g/ha (MATCH; [1]): 70%
- pest or weed control at 20 g/ha (POLCO; Fallopia convolvulus, post-emergence, 480 h, read-out: herbicidal activity against POLCO found): 30%
- herbicidal activity against STEME found (STEME; B.174 alone 40 g/ha a.i.): 50
- pest or weed control at 40 g/ha (VIOAR): 65%

SMILES: CCc1cnc(C2=NC(C)(C(C)C)C(=O)N2)c(C(=O)O)c1 (stereo not drawn) [B.40, imazethapyr]
- herbicidal activity against ECHCG found (ECHCG; [2]): 85
- herbicidal activity against GERDI found (GERDI; [2]): 95
- herbicidal activity against GERDI found (GERDI; [3]): 90
- herbicidal activity against IPOHE found (IPOHE; [3]): 80
- herbicidal activity against PAPRH found (PAPRH; [3]): 45
- herbicidal activity against POLCO found (POLCO; post emergence, application rate a.i.: I.1 31.25 g/ha, B.40 (imazethapyr) 7.5 g/ha, alone or as mixture (composition 1.40)): 80

SMILES: CC(C)N(C(=O)COc1nnc(C(F)(F)F)s1)c1ccc(F)cc1 [B.130, flufenacet]
- pest or weed control at 50 g/ha (ALOMY; Alopecurus myosuroides, post-emergence, 480 h, single active, 50 g/ha a.i., post emergence, read-out: herbicidal activity against ALOMY found): 40%
- pest or weed control at 100 g/ha (ALOMY; Alopecurus myosuroides, post-emergence, 480 h, single active, 100 g/ha a.i., post emergence, read-out: herbicidal activity against ALOMY found): 65%
- pest or weed control at 50 g/ha (APESV; Apera spica-venti, post-emergence, 480 h, single active, 50 g/ha a.i., post emergence, read-out: herbicidal activity against APESV found): 85%
- pest or weed control at 100 g/ha (ECHCG; Echinochloa crus-galli, post-emergence, 480 h, single active, 100 g/ha a.i., read-out: herbicidal activity against ECHCG found): 65%
- pest or weed control at 50 g/ha (ERICA; Erigeron canadensis, post-emergence, 480 h, single active, 50 g/ha a.i., read-out: herbicidal activity against ERICA found): 0%
- pest or weed control at 50 g/ha (GERDI; Geranium dissectum, post-emergence, 480 h, single active, 50 g/ha a.i., read-out: herbicidal activity against GERDI found): 10%
- pest or weed control at 100 g/ha (GERDI; Geranium dissectum, post-emergence, 480 h, single active, 100 g/ha a.i., read-out: herbicidal activity against GERDI found): 10%
- pest or weed control at 50 g/ha (IPOHE; Ipomoea hederacea, post-emergence, 480 h, single active, 50 g/ha a.i., read-out: herbicidal activity against IPOHE found): 60%
- pest or weed control at 50 g/ha (KCHSC; [4]): 0%
- pest or weed control at 50 g/ha (MATCH; Matricaria chamomilla, post-emergence, 480 h, single active, 50 g/ha a.i., post emergence, read-out: herbicidal activity against MATCH found): 0%
- pest or weed control at 100 g/ha (MATCH; Matricaria chamomilla, post-emergence, 480 h, single active, 100 g/ha a.i., post emergence, read-out: herbicidal activity against MATCH found): 20%
- pest or weed control at 50 g/ha (POLCO; Fallopia convolvulus, post-emergence, 480 h, single active, 50 g/ha a.i., post emergence, read-out: herbicidal activity against POLCO found): 10%
- pest or weed control at 100 g/ha (POLCO; Fallopia convolvulus, post-emergence, 480 h, single active, 100 g/ha a.i., post emergence, read-out: herbicidal activity against POLCO found): 10%
- pest or weed control at 50 g/ha (VIOAR; [4]): 80%

SMILES: C#CCN1C(=O)C(F)(F)Oc2cc(F)c(-n3c(=O)n(C)c(=S)n(C)c3=O)cc21 [B.95, trifludimoxazin]
- herbicidal activity against ALOMY found (ALOMY; post emergence, I.1 31.25 g/ha): 25
- herbicidal activity against ALOMY found (ALOMY; post emergence, I.1 62.5 g/ha): 25
- herbicidal activity against APESV found (APESV; post emergence, I.1 15.62 g/ha): 30
- herbicidal activity against APESV found (APESV; post emergence, I.1 62.5 g/ha): 30
- herbicidal activity against ECHCG found (ECHCG; [5]): 25
- herbicidal activity against ECHCG found (ECHCG; [6]): 45
- herbicidal activity against ERICA found (ERICA; [5]): 40
- herbicidal activity against ERICA found (ERICA; I.1 15.62 g/ha, B.95 2 g/ha a.i.): 45
- herbicidal activity against ERICA found (ERICA; [7]): 40
- herbicidal activity against ERICA found (ERICA; [8]): 45
- herbicidal activity against ERICA found (ERICA; [9]): 40
- herbicidal activity against ERICA found (ERICA; [6]): 45
- herbicidal activity against GALAP found (GALAP; [7]): 75
- herbicidal activity against GALAP found (GALAP; [8]): 75
- herbicidal activity against GALAP found (GALAP; [6]): 75
- herbicidal activity against GERDI found (GERDI; [9]): 65
- herbicidal activity against GERDI found (GERDI; [6]): 65
- herbicidal activity against MATCH found (MATCH; post emergence, I.1 15.62 g/ha, B.95 1 g/ha a.i.): 30
- herbicidal activity against MATCH found (MATCH; post emergence, I.1 31.25 g/ha, B.95 1 g/ha a.i.): 30
- herbicidal activity against MATCH found (MATCH; post emergence, I.1 31.25 g/ha, B.95 2 g/ha a.i.): 65
- herbicidal activity against MATCH found (MATCH; post emergence, I.1 62.5 g/ha, B.95 2 g/ha a.i.): 65
- herbicidal activity against PAPRH found (PAPRH; [7]): 35
- herbicidal activity against PAPRH found (PAPRH; [9]): 35

SMILES: CCCCCCCCSC(=O)Oc1cc(Cl)nnc1-c1ccccc1 [B.191, pyridate]
- herbicidal activity against ERICA found (ERICA; [10]): 70%
- herbicidal activity against GALAP found (GALAP; [10]): 90%
- herbicidal activity against MATCH found (MATCH; post emergence, a.i. g/ha: I.1 62.5, B.191 225, 20 days after treatment): 20%
- herbicidal activity against STEME found (STEME; [10]): 0%

SMILES: Cc1cnc2c(C(=O)O)c(Cl)ccc2c1 [B.169, quinmerac]
- pest or weed control at 62.5 g/ha (ALOMY; Alopecurus myosuroides, post-emergence, 480 h, post emergence, B.169 62.5 g/ha a.i., read-out: herbicidal activity against ALOMY found): 0%
- pest or weed control at 62.5 g/ha (APESV; Apera spica-venti, post-emergence, 480 h, post emergence, B.169 62.5 g/ha a.i., read-out: herbicidal activity against APESV found): 0%
- pest or weed control at 62.5 g/ha (ECHCG; Echinochloa crus-galli, post-emergence, 480 h, B.169 62.5 g/ha a.i., read-out: herbicidal activity against ECHCG found): 0%
- pest or weed control at 62.5 g/ha (ERICA; Erigeron canadensis, post-emergence, 480 h, B.169 62.5 g/ha a.i., read-out: herbicidal activity against ERICA found): 65%
- pest or weed control at 125 g/ha (ERICA; Erigeron canadensis, post-emergence, 480 h, B.169 125 g/ha a.i., read-out: herbicidal activity against ERICA found): 75%
- pest or weed control at 62.5 g/ha (KCHSC; post emergence, B.169 62.5 g/ha a.i.): 10%
- pest or weed control at 125 g/ha (KCHSC; post emergence, B.169 125 g/ha a.i.): 25%
